Results from publication PMC6263254, “Solid-Phase Synthesis of Arylpiperazine Derivatives and Implementation of the Distributed Drug Discovery (D3) Project in the Search for CNS Agents” (Molecules, 2011).
Read-outs that look alike come from different tables or passages of the source.

How the values were obtained:
[1] = biological target: T1, native serotonin 5-HT1A receptors (Rattus norvegicus, UniProt P19327); experiment: Radioligand binding, [3H]-8-OH-DPAT, rat hippocampal membranes; conditions: read-out: Ki 5-HT1A; note: SEM ≤ 22%
T1 construct: from tissue; host or cells: rat hippocampus membranes
T1 sequence (P19327 1-422): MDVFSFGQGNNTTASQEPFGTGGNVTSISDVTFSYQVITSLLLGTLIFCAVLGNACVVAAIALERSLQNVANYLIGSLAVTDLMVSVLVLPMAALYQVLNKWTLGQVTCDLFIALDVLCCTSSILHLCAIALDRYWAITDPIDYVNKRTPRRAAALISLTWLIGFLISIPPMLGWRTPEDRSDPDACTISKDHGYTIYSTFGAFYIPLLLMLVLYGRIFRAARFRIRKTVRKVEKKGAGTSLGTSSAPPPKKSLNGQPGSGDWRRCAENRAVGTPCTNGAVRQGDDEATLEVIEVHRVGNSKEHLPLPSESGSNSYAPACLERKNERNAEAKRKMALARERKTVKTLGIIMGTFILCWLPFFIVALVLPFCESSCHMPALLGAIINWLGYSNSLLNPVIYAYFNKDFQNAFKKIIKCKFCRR
Protocol: (§1) Membrane preparation and a general assay procedure were carried out according to the previously published protocols. Two compound concentrations were tested: 0.1 and 1 μM, each run in triplicate.

[2] = biological target: T2, native serotonin 5-HT2A receptors (Rattus norvegicus, UniProt P14842); experiment: Radioligand binding, [3H]-ketanserin, rat cortical membranes; conditions: read-out: Ki 5-HT2A; for Ki 5-HT2A: SEM ≤ 22%
T2 construct: from tissue; host or cells: rat cortex membranes
T2 sequence (P14842 whole entry): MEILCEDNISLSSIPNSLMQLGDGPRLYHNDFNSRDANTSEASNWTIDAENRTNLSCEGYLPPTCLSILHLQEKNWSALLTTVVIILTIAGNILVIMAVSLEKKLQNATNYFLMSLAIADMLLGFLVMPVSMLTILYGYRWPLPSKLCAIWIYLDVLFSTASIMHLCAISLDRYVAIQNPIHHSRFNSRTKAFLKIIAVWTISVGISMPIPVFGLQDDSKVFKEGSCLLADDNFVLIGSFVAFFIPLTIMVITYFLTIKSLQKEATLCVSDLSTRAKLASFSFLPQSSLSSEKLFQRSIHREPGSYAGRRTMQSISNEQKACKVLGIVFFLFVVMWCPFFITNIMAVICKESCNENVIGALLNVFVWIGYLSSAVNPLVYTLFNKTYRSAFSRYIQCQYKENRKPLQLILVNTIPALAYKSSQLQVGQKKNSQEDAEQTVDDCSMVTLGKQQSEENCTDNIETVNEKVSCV
Protocol: as §1

[3] = tested on: 5-HT1A receptors; conditions: cited from earlier work
[4] = tested on: 5-HT2A; conditions: cited from earlier work
[5] = set-up: method as in PMID 17321139; conditions: doses of 5–20 mg/kg; ref [4]; cited from earlier work

O=C(NCCCCN1CCN(c2cccc(C(F)(F)F)c2)CC1)[C@@H]1CCCN1C(=O)C1CCCC1 [10{9,2}, 1-(Cyclopentylcarbonyl)-N-{4-[4-((3-trifluoromethyl)phenyl)piperazin-1-yl]butyl}-L-prolinamide]
potency estimated from few doses [1]: 26 nM | potency estimated from few doses [2]: 191 nM

COc1ccccc1N1CCN(CCCCN2C(=O)C[C@H](NC(=O)C3CCCCC3)C2=O)CC1 [PZ-68]
functional activity at 5-HT1A receptors ([3]; ref [4]): partial agonist | functional activity at 5-HT2A receptors ([4]; ref [4]): antagonist | in vivo antidepressant-like activity [5]: showed in vivo antidepressant-like activity

CC(=O)N[C@H]1CC(=O)N(CCCN2CCN(c3cccc(C(F)(F)F)c3)CC2)C1=O [9{8,1}, N-((S)-1-{3-[4-((3-trifluoromethyl)phenyl)piperazin-1-yl]propyl}pyrrolidin-2,5-dion-yl)acetamide]
potency estimated from few doses [1]: 129 nM | potency estimated from few doses [2]: 164 nM

O=C(N[C@H]1CC(=O)N(CCCCN2CCN(c3cccc(C(F)(F)F)c3)CC2)C1=O)C1CCCC1 [9{9,2}, N-((S)-1-{4-[4-((3-trifluoromethyl)phenyl)piperazin-1-yl]butyl}pyrrolidin-2,5-dion-yl)cyclopentanecarboxamide]
potency estimated from few doses [1]: 24 nM | potency estimated from few doses [2]: 79 nM

O=c1[nH]c2ccccc2n1CCN1CCN(c2cccc(C(F)(F)F)c2)CC1 [Flibanserin]
functional activity at 5-HT1A receptors ([3]; ref [1],[2]): agonist | functional activity at 5-HT2A receptors ([4]; ref [1],[2]): antagonist

O=C(N[C@H]1CC(=O)N(CCCN2CCN(c3cccc(C(F)(F)F)c3)CC2)C1=O)C1CCCCC1 [9{8,3}, N-((S)-1-{3-[4-((3-trifluoromethyl)phenyl)piperazin-1-yl]propyl}pyrrolidin-2,5-dion-yl)cyclohexanecarboxamide]
potency estimated from few doses [1]: 170 nM | potency estimated from few doses [2]: 276 nM

O=C(NCCCN1CCN(c2cccc(C(F)(F)F)c2)CC1)[C@@H]1CCCN1C(=O)C12CC3CC(CC(C3)C1)C2 [10{8,6}, 1-(Adamantylcarbonyl)-N-{3-[4-((3-trifluoromethyl)phenyl)piperazin-1-yl]propyl}-L-prolinamide]
potency estimated from few doses [1]: 42 nM | potency estimated from few doses [2]: 1650 nM

O=C(N[C@H]1CC(=O)N(CCCCN2CCN(c3cccc(C(F)(F)F)c3)CC2)C1=O)C1CCCCC1 [9{9,3}, N-((S)-1-{4-[4-((3-trifluoromethyl)phenyl)piperazin-1-yl]butyl}pyrrolidin-2,5-dion-3-yl)cyclohexanecarboxamide]
potency estimated from few doses [1]: 19 nM | potency estimated from few doses [2]: 70 nM

O=C1C[C@H](NC(=O)C23CC4CC(CC(C4)C2)C3)C(=O)N1CCCCN1CCN(c2cccc(C(F)(F)F)c2)CC1 [9{9,6}, N-((S)-1-{4-[4-((3-trifluoromethyl)phenyl)piperazin-1-yl]butyl}pyrrolidin-2,5-dion-yl)-1-adamatanecarboxamide]
potency estimated from few doses [1]: 21 nM | potency estimated from few doses [2]: 39 nM

O=C1CC2(CCCC2)CC(=O)N1CCCCN1CCN(c2ncccn2)CC1 [buspirone, reference compound]
potency estimated from few doses [1]: 36 nM

O=C(NCCCCN1CCN(c2cccc(C(F)(F)F)c2)CC1)[C@@H]1CCCN1C(=O)C12CC3CC(CC(C3)C1)C2 [10{9,6}, 1-(Adamantylcarbonyl)-N-{4-[4-((3-trifluoromethyl)phenyl)piperazin-1-yl]butyl}-L-prolinamide]
potency estimated from few doses [1]: 8 nM | potency estimated from few doses [2]: 699 nM
